In brackets after ≈: the same amount, converted by molar mass.
Columns and labels:
[1] = system: Streptococcus mutans wild-type strain UA159; test: MIC assay, S. mutans; type: cell-based; settings: planktonic, 5% CO2, 37° C., 20-24 hours
From the text: (§1) Streptococcus mutans wild-type strain UA159 was provided by Dr. Bettina Buttaro from Temple University Medical School, Philadelphia, Pa. Streptococcus gordonii strain DL1 and Streptococcus sanguinis strain 10904 were provided by Dr. Robert G. Quivey from University of Rochester Medical School. Streptococcus gordonii strain DL1 may be obtained from the American Type Culture Collection under accession #49818. Streptococcus sanguinis strain 10904 may be obtained from the National Collection of Type Cultures under accession #10904. Bacteria were routinely maintained on in Bacto™ Todd-Hewitt (TH) agar plates and liquid cultures were grown in Bacto™ Todd-Hewitt broth (THB). For growth of biofilms, THB was supplemented with 0.1% sucrose. Incubation was stagnant at 37° C. Bacterial strains Methicillin-Resistant Staphylococcus aureus HPV107, Staphylococcus epidermidis Fussel [NCTC 11047, R. Hugh 2466], Streptococcus sobrinus SL1 [CCM 6070, CNCTC 9/89], Enterococcus faecalis NCTC 775 [DSM 20478, JCM 8726, NCDO 581, Tissier], Pseudomonas aeruginosa [CCEB 481, MDB strain BU 277, NCIB 8295, NCPPB 1965, NCTC 10332, NRRL B-771, R. Hugh 815], Serratia marcescens BS 303 [CDC 813-60, NCIB 9155, NCTC 10211], and Acinetobacter baumannii 2208 [81, DSM 6974] were purchased from the American Type Culture Collection.
(§2) Stock solutions of compounds (10 mM) were serial diluted (200 μL, 100 μL, 50 μL, 10 μL, and 2 μL) in THB media in flat-bottom 96-well microtiter plates (total volume 100 μL). Bacterial cultures were grown in brain heart infusion or nutrient broth media to mid-exponential phase, back diluted to an OD of 0.1 and then inoculated into the 96-well plate to reach a final volume of 200 μL. Plates were inoculated at 37° C. in 5% CO2 for 20-24 hours upon which time wells were evaluated visually for bacterial growth and/or the wells' OD630 was evaluated via spectrophotometer. […] DMSO controls corresponding to each test concentration were performed. Biological triplicates were performed to confirm results.

[2] = system: Streptococcus sanguinis strain 10904; test: MIC assay, S. sanguinis; type: cell-based; settings: 5% CO2, 37° C., 20-24 hours
From the text: as §1, §2

[3] = system: Streptococcus gordonii strain DL1; test: MIC assay, S. gordonii; type: cell-based; settings: 5% CO2, 37° C., 20-24 hours
From the text: as §1, §2

S. mutans = S. mutans MBC assay; type: cell-based, Streptococcus mutans; settings: for MBC: Streptococcus mutans, 3-log reduction in CFU count (99.9% bacterial death); for bacteriostatic or bactericidal properties (regrow analysis, MIC vs MBC): S. mutans
Experimental: MIC assay was performed (above) and each well diluted (log-dilution) into a new 96-well microtiter plate. Five μL from each dilution was then plated on THB agar plates and incubated for 24 hours. Colony counts were performed to determine MBC which is defined as the concentration which there is a 3-log reduction in CFU count which corresponds to 99.9% bacterial death.

[4] = system: red blood cells (mechanically defibrinated sheep blood); test: Hemolysis assay (cell lysis); type: cell-based; parameters: red blood cell lysis: unit not given here; settings: 1 hour, 37° C.
Experimental: The effects of the compounds described herein to lyse cells was evaluated in this example. Hemolysis assays were performed on mechanically defibrinated sheep blood (Hemostat Labs: DSB030). 1.5 mL of blood was placed into a microcentrifuge tube and centrifuged at 10,000 rpm for ten minutes. The supernatant was removed and then the cells were resuspended with 1 mL of phosphate-buffered saline (PBS). The suspension was centrifuged as previously, the supernatant was removed, and cells were resuspended two more times. The final cell suspension was diluted twentyfold with PBS. The twentyfold suspension dilution was then aliquoted into microcentrifuge tubes containing compound serially diluted in PBS. TritonX (1% by volume) served as a positive control (100% lysis marker) and sterile PBS served as a negative control (0% lysis marker). Samples were then placed in an incubator at 37° C. and shaken at 200 rpm. After 1 hour, the samples were centrifuged at 10,000 rpm for ten minutes. The absorbance of the supernatant was measured with a UV spectrometer at a 540 nm wavelength. See, e.g., Peng, Chem. Comm. 2011, 47, 4896-4898.

[5] = Concentration 500 μM, TritonX 100% lysis, PBS 0% lysis

Structure (SMILES)	MIC [1] [µM]	MIC [2] [µM]	MIC [3] [µM]	other results
Cc1cc(-c2c(O)ccc3ccccc23)cc(C)c1O [Compound B1, 1-(4-Hydroxy-3,5-dimethylphenyl)naphthalene-2-ol]	> 250	> 250	> 250	–
Cc1cc(O)c(-c2cc(C(C)C)c(O)c(C(C)C)c2)c(C)c1C [Compound A9, 3′,5′-Diisopropyl-4,5,6-trimethyl-[1,1′-biphenyl]-2,4′-diol]	> 250	> 250	> 250	–
Cc1cc(O)c(C)c(O)c1-c1cc(C(C)(C)C)c(O)c(C(C)(C)C)c1 [Compound A2, 3′,5′-Di-tert-3,6-methyl-[1,1′-biphenyl]-2,4,4′-triol]	32 (≈ 11 µg/mL)	32 (≈ 11 µg/mL)	32 (≈ 11 µg/mL)	MBC (S. mutans): 63 µM (≈ 21.6 µg/mL)
Cc1cc(-c2cc(C)c(O)c(C)c2)cc(C)c1O [Compound A3]	> 250	> 250	> 250	–
C=CCc1cc(-c2c(O)ccc3cc(OC)ccc23)cc(C(C)(C)C)c1O [Compound B7, 1-(3-Allyl-5-(tert-butyl)-4-hydroxyphenyl)-6-methoxynaphthalen-2-ol]	125 (≈ 45.3 µg/mL)	63 (≈ 22.8 µg/mL)	125 (≈ 45.3 µg/mL)	–
C=CCc1cc(-c2c(O)cc(C)c(C)c2C)cc(C(C)(C)C)c1O [Compound A6, 3′-Allyl-5′-(tert-butyl)-4,5,6-trimethyl-[1,1′-biphenyl]2,4′-diol]	> 250	> 250	> 250	–
CC(C)(C)c1cc(-c2c(O)ccc3ccccc23)cc(C(C)(C)C)c1O [Compound B3]	63 (≈ 22 µg/mL)	63 (≈ 22 µg/mL)	63 (≈ 22 µg/mL)	–
C=CCc1cc(-c2c(O)ccc3cc(Br)ccc23)cc(C(C)(C)C)c1O [Compound B8, 1-(3-Allyl-5-(tert-butyl)-4-hydroxyphenyl)-6-bromonaphthalen-2-ol]	16 (≈ 6.58 µg/mL)	8 (≈ 3.29 µg/mL)	16 (≈ 6.58 µg/mL)	bacteriostatic or bactericidal properties (regrow analysis, MIC vs MBC) (S. mutans): bactericidal; MBC (S. mutans): 32 µM (≈ 13.2 µg/mL)
CCCc1cc(-c2c(O)ccc3cc(OC)ccc23)cc(C(C)(C)C)c1O [Compound B11, 1-(3-(tert-Butyl)-4-hydroxy-5-propylphenyl)-6-methoxynaphthalen-2-ol]	16 (≈ 5.83 µg/mL)	8 (≈ 2.92 µg/mL)	16 (≈ 5.83 µg/mL)	bacteriostatic or bactericidal properties (regrow analysis, MIC vs MBC) (S. mutans): bactericidal; MBC (S. mutans): 63 µM (≈ 23 µg/mL)
CC(C)c1cc(-c2c(O)ccc3cc(-n4cccn4)ccc23)cc(C(C)C)c1O [Compound B13, 1-(4-Hydroxy-3,5-diisopropylphenyl)-6-(1H-pyrazol-1-yl)naphthalen-2-ol]	> 250	> 250	> 250	–
C=CCc1cc(-c2c(O)ccc3c(-c4cc(CC=C)c(O)c(C(C)(C)C)c4)c(O)ccc23)cc(C(C)(C)C)c1O [Compound B14, 1,5-Bis(3-allyl-5-(tert-butyl)-4-hydroxyphenyl)naphthalene-2,6-diol]	63 (≈ 33.8 µg/mL)	16 (≈ 8.59 µg/mL)	32 (≈ 17.2 µg/mL)	–
COc1cc(-c2c(O)ccc3ccccc23)cc(OC)c1O [Compound B2, 1-(4-Hydroxy-3,5-dimethoxyphenyl)naphthalen-2-ol]	> 250	> 250	> 250	–
COc1cccc(CCc2ccccc2O)c1 [Compound 6]	–	–	–	red blood cell lysis ([4]; Concentration 0.25 μM): 0.03; red blood cell lysis ([4]; Concentration 0.5 μM): −0.02; red blood cell lysis ([4]; Concentration 1 μM): −0.03; red blood cell lysis ([4]; Concentration 2 μM): −0.03; red blood cell lysis ([4]; Concentration 4 μM): 0.35; red blood cell lysis ([4]; Concentration 8 μM): −0.03; red blood cell lysis ([4]; Concentration 16 μM): −0.03; red blood cell lysis ([4]; Concentration 32 μM): −0.02; red blood cell lysis ([4]; Concentration 63 μM): 0.07; red blood cell lysis ([4]; Concentration 125 μM): −0.02; red blood cell lysis ([4]; Concentration 250 μM): 0.02; red blood cell lysis [4, 5]: 0.27
CC(C)c1cc(-c2c(O)ccc3cc(Br)ccc23)cc(C(C)C)c1O [Compound B6, 6-Bromo-1-(4-hydroxy-3,5-diisopropylphenyl)naphthalen-2-ol]	> 250	> 250	> 250	–
CC(C)(C)c1cc(-c2c(O)ccc3ccc(O)cc23)cc(C(C)(C)C)c1O [Compound B4, 1-(3,5-Di-tert-butyl-4-hydroxyphenol)naphthalene-2-7-diol]	125 (≈ 45.6 µg/mL)	125 (≈ 45.6 µg/mL)	125 (≈ 45.6 µg/mL)	–
COc1cc(CCc2ccc(C(C)(C)C)c(O)c2)ccc1C(C)(C)C [Compound 1H-2, (tert-butyl)-5-(4-(tert-butyl)-3-methoxyphenethyl)phenol]	–	–	–	red blood cell lysis ([4]; Concentration 0.25 μM): 0.13; red blood cell lysis ([4]; Concentration 0.5 μM): −0.02; red blood cell lysis ([4]; Concentration 1 μM): −0.02; red blood cell lysis ([4]; Concentration 2 μM): −0.03; red blood cell lysis ([4]; Concentration 4 μM): 0.16; red blood cell lysis ([4]; Concentration 8 μM): −0.03; red blood cell lysis ([4]; Concentration 16 μM): −0.03; red blood cell lysis ([4]; Concentration 32 μM): −0.02; red blood cell lysis ([4]; Concentration 63 μM): 0.02; red blood cell lysis ([4]; Concentration 125 μM): 0.12; red blood cell lysis ([4]; Concentration 250 μM): 0.21; red blood cell lysis [4, 5]: 0.33
Cc1c(O)c(-c2cc(C(C)(C)C)c(O)c(C(C)(C)C)c2)c(C)c(-c2cc(C(C)(C)C)c(O)c(C(C)(C)C)c2)c1O [Compound A11, 3,3″,5,5″-Tetra-tert-butyl-2′,5′-dimethyl-[1,1′:3′,1″-terphenyl]-4,4′,4″,6′-tetraol]	> 250	> 250	> 250	–
Cc1cc(-c2cc(C)c(O)c(C(C)(C)C)c2)c(C(C)C)cc1O [Compound A7]	32 (≈ 10 µg/mL)	32 (≈ 10 µg/mL)	16 (≈ 5 µg/mL)	MBC (S. mutans): 32 µM (≈ 10 µg/mL)
C=CCc1cc(-c2cc(C)ccc2O)cc(C(C)(C)C)c1O [Compound A8, 3′-Allyl-5′-(tert-butyl)-5-methyl-[1,1′-biphenyl]2,4′-diol]	> 250	125 (≈ 37.1 µg/mL)	125 (≈ 37.1 µg/mL)	–
CC(C)(C)c1ccc(CCc2cccc(O)c2)cc1O [Compound 1H-3, 2-(tert-butyl)-5-(3-hydroxyphenethyl)phenol]	–	–	–	red blood cell lysis ([4]; Concentration 0.25 μM): 0.11; red blood cell lysis ([4]; Concentration 0.5 μM): 0.00; red blood cell lysis ([4]; Concentration 1 μM): −0.03; red blood cell lysis ([4]; Concentration 2 μM): −0.03; red blood cell lysis ([4]; Concentration 4 μM): −0.03; red blood cell lysis ([4]; Concentration 8 μM): 0.29; red blood cell lysis ([4]; Concentration 16 μM): −0.03; red blood cell lysis ([4]; Concentration 32 μM): −0.03; red blood cell lysis ([4]; Concentration 63 μM): 0.00; red blood cell lysis ([4]; Concentration 125 μM): 0.46; red blood cell lysis ([4]; Concentration 250 μM): 0.69; red blood cell lysis [4, 5]: 0.81
CCCc1cc(-c2c(O)ccc3cc(Br)ccc23)cc(C(C)(C)C)c1O [Compound B12, 6-Bromo-1-(3-(tert-butyl)-4-hydroxy-5-propylphenyl)naphthalen-2-ol]	> 250	250 (≈ 103 µg/mL)	250 (≈ 103 µg/mL)	–
CCCc1c(C)cc(C)c(-c2c(C)cc(C)c(CCC)c2O)c1O [Compound A4, 4,4’,6,6′-Tetramethyl-3,3′-dipropyl-[1,1′-diphenyl]2,2′-diol]	> 250	> 250	> 250	–
C=CCc1c(C)cc(C)c(-c2c(C)cc(C)c(CC=C)c2O)c1O [Compound A5, 3,3′Diallyl-4,4′,6,6′-tetramethyl-[1,1′-biphenyl]-2,2′-diol]	> 250	> 250	> 250	–
C=CCc1cc(-c2cc(C)c(O)cc2C(C)C)cc(CC=C)c1O [Compound A10, 3′,5′-Diallyl-2-isopropyl-5-methyl-[1,1′-biphenyl]-4,4′-diol]	> 250	250 (≈ 80.6 µg/mL)	250 (≈ 80.6 µg/mL)	–

Reference: patent US20200375949A1, “BISPHENOL COMPOUNDS” (THE TRUSTEES OF THE UNIVERSITY OF PENNSYLVANIA, priority 2017, published 2020)
